Experimental data taken from patent publication US9770423B2, “Modulation sAPP, sAAPα and BDNF levels in individuals diagnosed with FXS and ASD” (Indiana University Research and Technology Corp., priority 2012, dated 2017).
Entries after “also recorded” stand apart in the source; their conditions may differ.

What was measured:
[1] = system: youths symptomatic for an autistic disorder; conditions: mean dose 1,110 mg/day, 10 to 30 weeks; cited from earlier work
[2] = system: BDNF; assay: plasma BDNF by ELISA in the FXS open-label trial; format: in vivo, human
Description: Blood samples for BDNF were drawn at Screen and at Week 10 of the study. BDNF analysis was done blind to patient assignment (pre- or post-treatment). Approximately 4 ml of blood was collected in EDTA containing tubes. Within 30 minutes of collection, the blood was centrifuged at 1000 g at 2-8° C. for 15 minutes. Plasma was collected and an additional centrifugation of the collected plasma at 1000 g at 2-8° C. for 10 minutes was done to completely remove platelets from the samples. All plasma samples were stored at −80° C. BDNF assays were done at the same time with all samples in triplicate. To determine plasma BDNF, a sensitive ELISA based method was used using human BDNF ELISA kit from R&D systems (Minneapolis, Minn.; USA) that is validated for detection of BDNF present in human plasma (Grassi-Oliveira et al., 2008). The amount (pg/ml) of BDNF present in the plasma samples was determined from the pg value obtained in the standard curve using a known amount of pure human BDNF, which was run at the same time with subjects' samples.
All data were recorded in IBM SPSS Statistics Professional for statistical analysis. Potential differences in pre- and post-treatment mean values of all outcome measures employed were calculated using paired t-tests. […] Effect sizes were calculated by taking the mean change from baseline to endpoint divided by the standard deviation at baseline.

[3] = system: glutamate or GABA receptors subtypes; conditions: xenopus oocyte model, clinically relevant concentrations; cited from earlier work
[4] = safety measures and adverse effects in the FXS open-label trial; format: in vivo, human
Source text: Safety assessment and monitoring began at screen when all subjects underwent a medical history, physical examination, and full psychiatric interview. A physical examination was also completed at end point. Vital signs, including height and weight, were obtained at each study visit. At screen, genetic testing for FXS was obtained if record of molecular testing utilizing Southern Blot and PCR was not available. At screen, week 6, and endpoint, laboratory tests of blood and urine, including CBC with differential and platelets, electrolyte panel, liver associated enzymes, lipid panel, and urine pregnancy test (in females) were obtained. An electrocardiogram was also obtained at screen and endpoint.
The pilot study ran for 10 weeks. Safety lab screens were carried out at weeks 6 and 10. Physiologic parameters measured during the safety screens were as follows: vital signs, LFTs, electrolyte panels, CBC with diff/plts, lipid panel, glucose, urinalysis and ECG.
In-person clinical visits were scheduled for every two weeks. Telephonic evaluations were carried out at weeks 1, 3, and 5. Each subject was evaluated for side effects at every interaction with the practitioner.

[5] = safety and adverse effects in the 12-week trial in youth with autistic disorder; format: in vivo, human; conditions: nine youth with autistic disorder receiving acamprosate
Description: A 12-week single-blind, placebo-controlled trial of the effect of acamprosate in the treatment of 12 youths with autistic disorder aged 5 to 17 years was carried out. In order to pilot test use of acamprosate in youth with autism targeting core social impairment, was conducted. All subjects and their family members were blinded to treatment status. All subjects participated in a 2 week placebo-lead-in phase prior to 10 weeks of treatment with acamprosate. For this project, enteric coated commercially available 333 mg acamprosate pills were over-encapsulated and identical matching placebo manufactured for the project. Placebo-responders, defined by a Clinical Global Impressions Improvement scale (CGI-I) score of 1 “very much improved” or 2 “much improved” (ratings anchored to core social deficits) at week 2 were asked to exit the study. During active treatment with acamprosate, dosing was increased in 333 mg increments per week over the first six weeks of active treatment to a maximum dose of 1,332 mg/day (weight<5 60 kg) or 1,998 mg/day (weight>60 kg). During the final four weeks of active drug treatment, subjects were maintained on a stable highest tolerated (optimal) dose. The primary outcome measure was the clinician-rated CGI-I anchored to symptoms of social impairment. […]

[6] = caregiver reported, 12 youth with FXS

In the case of `CC(=O)NCCCS(=O)(=O)O.[Ca]` [acamprosate, Calcium Acetylhomotaurine], the “youths judged treatment responders” value [1] is listed as “five of six”, the “change in plasma BDNF from screen to Week 10” value ([2]; 10 subjects with FXS) is listed as “All subjects experienced an increase” and the “mean subject plasma BDNF after treatment” value ([2]; Week 10, 10 subjects with FXS, screen 790.4±1350.4 pg/mL, p=0.01) is listed as 1007.6 ± 1493.2 pg/mL. For the same molecule, the “direct binding to glutamate or GABA receptors subtypes” value [3] was “no direct binding”, the “Increased body rocking, mild (number of patients)” value ([4]; 12 youth with FXS) was 1 and the “ECG including QTc interval” value ([4]; FXS trial) was “no change in the QTc interval”. For the same molecule, the “laboratory measures: lipids, electrolytes, liver function tests, blood counts” value ([4]; FXS trial) was “no clinically significant or mean changes”, the “weight, pulse, or blood pressure” value ([4]; FXS trial) was “No clinically significant changes” and the overall tolerability ([4]; FXS trial, 12 subjects) was “well tolerated overall, with no severe or serious adverse effects”. For the same molecule, the “Constipation, mild (n subjects)” value [4, 6] was 1, the “Diarrhea, mild (n subjects)” value [4, 6] was 1 and the “Increased Anxiety, mild (n subjects)” value [4, 6] was 1. For the same molecule, the “Increased Repetitive Behavior, mild (n subjects)” value [4, 6] was 2, the “Insomnia, mild (n subjects)” value [4, 6] was 1 and the “Irritability, mild (n subjects)” value [4, 6] was 4. For the same molecule, the “Nightmares, mild (n subjects)” value [4, 6] was 1, the “Rhinitis, mild (n subjects)” value [4, 6] was 1 and the “Urinary Urgency, mild (n subjects)” value [4, 6] was 1. For the same molecule, the “subjects who experienced a mild adverse event” value ([4]; nine of 12 subjects, FXS trial) was 75% and the overall tolerability [5] was “well tolerated with no adverse effects leading to drug discontinuation or laboratory/vital sign abnormalities noted; also recorded: well tolerated with no adverse effects leading to drug discontinuation and no vital sign or safety laboratory changes noted”.
